Source: patent US20230167127A1, “COMPOUNDS AND THEIR USE IN THE TREATMENT OF BACTERIAL INFECTION” (Hoffmann-La Roche Inc., priority 2020, published 2023)
pIC50: −log10 of the molar value.

Tested on: Escherichia coli ATCC 25922
Assay: 50% growth inhibitory concentration (IC50) determination, Iso-Sensitest broth dilution
Type: cell-based
Conditions: Escherichia coli, ATCC25922, 16 h, strain Escherichia coli ATCC 25922; 10-point broth dilution, optical density at 600 nm over 16 h; read-out: Escherichia coli growth inhibition IC50
How it was run: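 Growth was tracked as optical density at 600 nm every 20 minutes for 16 h at 35±2° C. Compounds from DMSO stocks were serially diluted twofold over 10 points (e.g. 50–0.097 μM final) in Iso-Sensitest broth. Inhibition computed in log-phase growth to give IC50.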

SMILES | pIC50
COCCNCCOc1nc(C)c2c(c1C)CC(CNCCC1CN(c3ccc4c(n3)NC(=O)CO4)C(=O)O1)C2 (stereo not shown) [Example 202, 6-[5-[2-[[3-[2-(2-methoxyethylamino)ethoxy]-1,4-dimethyl-6,7-dihydro-5H-cyclopenta[c]pyridin-6-yl]methylamino]ethyl]-2-oxo-1,3-oxazolidin-3-yl]-4H-pyrido[3,2-b][1,4]oxazin-3-one] | 6.87
O=C1COc2ncc(-n3cc(CCNCC4Cc5cncc(F)c5C4)oc3=O)nc2N1 (stereo not shown) [Example 372, 6-[5-[2-[(4-fluoro-6,7-dihydro-5H-cyclopenta[e]pyridin-6-yi)methylamino]ethyl]-2-oxo-1,3-oxazol-3-yl]-4H-pyrazino[2,3-b][1,4]oxazin-3-one] | > 7.01
N#Cc1nccc2c1CC(NCCCC1CN(c3ccc4c(n3)NC(=O)CO4)C(=O)O1)C2 (stereo not shown) [Example 95, 6-[3-[2-oxo-3-(3-oxo-4H-pyrido[3,2-b][1,4]oxazin-6-yl)-1,3-oxazolidin-5-yl]propylamino]-6,7-dihydro-5H-cyclopenta[c]pyridine-1-carbonitrile] | 6.63
CNC(=O)COc1cc(C)c2c(c1C)CC(CNCCC1CN(c3ccc4c(n3)NC(=O)CO4)C(=O)O1)C2 (stereo not shown) [Example 112, 2 2-[[4,7-dimethyl-2-[[2-[2-oxo-3-(3-oxo-4H-pyrido[3,2-b][1,4]oxazin-6-yl)-1,3-oxazolidin-5-yl]ethylamino]methyl]-2,3-dihydro-1H-inden-5-yl]oxy]-N-methylacetamide] | 6.52
N#Cc1cccc2c1CC(CN(CCN)CCC1CN(c3ccc4c(n3)NC(=O)CO4)C(=O)O1)C2 (stereo not shown) [Example 233, 2-[[2-Aminoethyl-[2-[2-oxo-3-(3-oxo-4H-pyrido[3,2-b][1,4]oxazin-6-yl)-1,3-oxazolidin-5-yl]ethyl]amino]methyl]-2,3-dihydro-1H-indene-4-carbonitrile; formic acid] | 6.03
Cc1ncc(F)c2c1CC(CNCCc1nn(-c3cnc4c(n3)NC(=O)CO4)c(=O)o1)C2 (stereo not shown) [Example 335, 6-[5-[2-[(4-fluoro-1-methyl-6,7-dihydro-5H-cyclopenta[c]pyridin-6-yl)methylamino]ethyl]-2-oxo-1,3,4-oxadiazol-3-yl]-4H-pyrazino[2,3-b][1,4]oxazin-3-one] | 6.65
CNc1cc2c(c(C)n1)CC(CNCCC1CN(c3ccc4c(n3)NC(=O)CO4)C(=O)O1)C2 (stereo not shown) [Example 420, 6-[5-[2-[[1-Methyl-3-(methylamino)-6,7-dihydro-5H-cyclopenta[c]pyridin-6-yl]methylamino]ethyl]-2-oxo-1,3-oxazolidin-3-yl]-4H-pyrido[3,2-b][1,4]oxazin-3-one] | 6.71
CC(C)(N)COc1cc(F)c2c(c1)CC(CN1CCC3(CC1)CN(c1cnc4c(n1)NC(=O)CO4)C(=O)O3)C2 (single isomer, unassigned; enantiomer a) [Example 377, 6-[8-[[6-(2-Amino-2-methylpropoxy)-4-fluoro-2,3-dihydro-1H-inden-2-yl]methyl]-2-oxo-1-oxa-3,8-diazaspiro[4.5]decan-3-yl]-4H-pyrazino[2,3-b][1,4]oxazin-3-one; formic acid, Enantiomer A] | > 7.01
O=C1COc2ncc(N3CC(CCNCC4Cc5cc(OCCn6cnnn6)cc(F)c5C4)OC3=O)nc2N1 (stereo not shown) [Example 347, 6-[5-[2-[[4-fluoro-6-[2-(tetrazol-1-yl)ethoxy]-2,3-dihydro-1H-inden-2-yl]methylamino]ethyl]-2-oxo-1,3-oxazolidin-3-yl]-4H-pyrazino[2,3-b][1,4]oxazin-3-one; formic acid] | 6.76
N#Cc1cccc2c1CC(CNC[C@@H](O)[C@H]1CN(c3ccc4c(c3)NC(=O)CO4)C(=O)O1)C2 (stereo partly drawn) [Example 61, 2-[[[(2R)-2-hydroxy-2-[(5R)-2-oxo-3-(3-oxo-4H-1,4-benzoxazin-6-yl)-1,3-oxazolidin-5-yl]ethyl]amino]methyl]-2,3-dihydro-1H-indene-4-carbonitrile; formic acid] | 6.79
O=C1COc2ncc(N3CC(CCNCC4Cc5nccc(F)c5C4)OC3=O)nc2N1 (stereo not shown) [Example 318, 6-[5-[2-[(4-fluoro-6,7-dihydro-5H-cyclopenta[b]pyridin-6-yl)methylamino]ethyl]-2-oxo-1,3-oxazolidin-3-yl]-4H-pyrazino [2,3-b][1,4]oxazin-3-one] | > 7.01
CC(C)(O)COc1cc(F)c2c(c1)CC(CNCCC1CN(c3cnc4c(n3)NC(=O)CO4)C(=O)O1)C2 (stereo not shown) [Example 292, 6-[5-[2-[[4-fluoro-6-(2-hydroxy-2-methylpropoxy)-2,3-dihydro-1H-inden-2-yl]methylamino]ethyl]-2-oxo-1,3-oxazolidin-3-yl]-4H-pyrazino[2,3-b][1,4]oxazin-3-one] | 6.39
O=C1COc2ncc(N3CC(CCNCC4Cc5c(F)cc(OCc6cc[nH]n6)c(F)c5C4)OC3=O)nc2N1 (stereo not shown) [Example 395, 6-[5-[2-[[4,7-difluoro-5-(1H-pyrazol-3-ylmethoxy)-2,3-dihydro-1H-inden-2-yl]methylamino]ethyl]-2-oxo-1,3-oxazolidin-3-yl]-4H-pyrazino[2,3-b][1,4]oxazin-3-one] | 6.78
N#Cc1nc(OCCN)cc2c1CC(CNCCC1CN(c3ccc4c(n3)NC(=O)CO4)C(=O)O1)C2 (stereo not shown) [Example 127, 3-(2-aminoethoxy)-6-[[2-[2-oxo-3-(3-oxo-4H-pyrido[3,2-b][1,4]oxazin-6-yl)-1,3-oxazolidin-5-yl]ethylamino]methyl]-6,7-dihydro-5H-cyclopenta[c]pyridine-1-carbonitrile; formic acid] | 6.72
O=C1COc2ncc(N3CC(CCNCC4Cc5cc(OCCn6ncnn6)cc(F)c5C4)OC3=O)nc2N1 (stereo not shown) [Example 348, 6-[5-[2-[[4-fluoro-6-[2-(tetrazol-2-yl)ethoxy]-2,3-dihydro-1H-inden-2-yl]methylamino]ethyl]-2-oxo-1,3-oxazolidin-3-yl]-4H-pyrazino[2,3-b][1,4]oxazin-3-one; formic acid] | 6.50
Cc1nccc2c1CC(CN1CCC3(CC1)CN(c1cnc4c(n1)NC(=O)CO4)C(=O)O3)C2 (stereo not shown) [Example 374, 6-[8-[(1-methyl-6,7-dihydro-5H-cyclopenta[c]pyridin-6-yl)methyl]-2-oxo-1-oxa-3,8-diazaspiro[4.5]decan-3-yl]-4H-pyrazino[2,3-b][1,4]oxazin-3-one] | 6.68
COc1nc(C)c2c(c1C)CC(CNCCC1CN(c3ccc4c(n3)NC(=O)CO4)C(=O)O1)C2 (stereo not shown) [Example 106, 6-[5-[2-[(3-methoxy-1,4-dimethyl-6,7-dihydro-5H-cyclopenta[c]pyridin-6-yl)methylamino]ethyl]-2-oxo-1,3-oxazolidin-3-yl]-4H-pyrido[3,2-b][1,4]oxazin-3-one] | 6.59
N#Cc1cc(OCC2(N)CC2)cc2c1CC(CCNCC1CN(c3ccc4c(n3)NC(=O)CO4)C(=O)O1)C2 (stereo not shown) [Example 196, 6-((1-aminocyclopropyl)methoxy)-2-(2-(((2-oxo-3-(3-oxo-3,4-dihydro-2H-pyrido[3,2-b][1,4]oxazin-6-yl)oxazolidin-5-yl)methyl)amino)ethyl)-2,3-dihydro-1H-indene-4-carbonitrile] | > 7.01
Cc1ncc(F)c2c1CC(CNCCc1cn(-c3cnc4c(n3)NC(=O)CO4)c(=O)o1)C2 (stereo not shown) [Example 293, 6-[5-[2-[(4-fluoro-1-methyl-6,7-dihydro-5H-cyclopenta[c]pyridin-6-yl)methylamino]ethyl]-2-oxo-1,3-oxazol-3-yl]-4H-pyrazino[2,3-b][1,4]oxazin-3-one] | > 7.01
